Assay results taken from patent publication US12528777B2, “Quinazolinones derivatives for treatment of non-alcoholic fatty liver disease, preparation and use thereof” (Council of Scientific and Industrial Research, priority 2020, dated 2026).
“Also recorded” adds a separate entry of the source.

Tests used:
[1] = Metabolic stability using Human Liver Microsomes; format: in vitro ADME; conditions: for % QH (Well stirred model): NADPH, 0-60 min
Protocol: 1 mM stock solution of test compound was prepared in DMSO and diluted with Acetonitrile:Water (1:1) to get a 100 μM working concentration. 100 mL of Milli Q water was added to K2HPO4 (1.398 g) and KH2PO4 (0.27 g) to get final pH 7.4 solution of potassium phosphate buffer. […] The above mixture was pre incubated for 15 minutes at 37° C. After pre incubation, 32.5 μL of the mixture was added to 17.5 μL of buffer, this was incubated for 60 minutes at 37° C. [60 min Without Cofactor (NADPH)]. 16.25 μL of the pre incubated mixture and 8.75 μL of cofactor was added to 150 μL of acetonitrile containing internal standard [0 min Sample]. 62 μL of cofactor was added to remaining pre incubation mixture [Incubation mixture]. 25 μL of incubation mixture at 0, 5, 15, 30, 60 min and 60 min without cofactor were precipitated with 150 μL of acetonitrile containing internal standard, vortexed and centrifuged at 4000 rpm at 4° C. for 20 minutes. 120 μL of supernatant was diluted with 120 μL of water and analyzed by LC-MS/MS [sample preparation].

ATGL = assay: Immunoprecipitation assay of ATGL ubiquitination in myc-ATGL HepG2 cells; format: cell-based; conditions: 5 μM, 24 hours, MG-132, poly ubiquitin smear
Protocol: To this end, an immunoprecipitation assay was performed wherein HepG2 cells overexpressing myc-ATGL were transfected with HA-Ubiquitin and treated with 5 μM of the compounds 9, 10, 107, 215, 219 and 238. MG-132, a proteasomal inhibitor, was added 4 hours before harvesting the cells. Immune complexes were pulled down with anti-myc antibody and immunoblot was done using anti-HA antibody. The resultant smears on the blot reflect the ubiquitination status of ATGL.
For checking the change in the ubiquitination status of ATGL on compound treatment, Myc-ATGL expressing HepG2 cells (ATGL overexpressing cell line) was transfected with 2 μg of a plasmid harboring the HA tagged ubiquitin gene using Lipofectamine 2000 reagent (Invitrogen) in OptiMEM media (HiMedia). Fresh DMEM complete media was added after 8-10 hours of transfection. After roughly 24 hours of transfection, 5 μM of the compounds 9, 10 and 107 was added and cells were harvested post 24 hours of treatment. 4 hours prior to cell harvesting, 10 μM of proteasomal inhibitor MG132 (Calbiochem, Merck Millipore) was added to the cells. Proteins were isolated from the cells and protein concentration was estimated as described previously. 30 μl of PureProteome Protein A/G Mix Magnetic Beads (Merck Millipore) was taken in a 1.5 ml microcentrifuge tube, placed in a Magna Rack (Merck Millipore) and allowed to adhere to the side of the tube. 200 μg of protein was used for immunoprecipitation reaction in a reaction volume of 1 ml. 2 μl of anti-Myc primary antibody (Cell Signaling Technology) was added and the tube was incubated overnight at 4° C. in a rotary shaker. The next day, the tube was placed back in the Magna Rack and the beads were allowed to attach to the tube. To remove non-specific and unattached reactants, 1×PBS and 0.1% Triton-X was used for washing. 2× loading dye and Lysis Buffer was added and heated at 95° C. for 10 minutes to allow the immune complex to dislodge from the magnetic beads. Western Blot was performed subsequently as described before with anti-HA primary antibody for immunoblotting (Cell Signaling Technology). The activity trends of the synthesized compounds are disclosed in Table-5.

COP1 [2] = assay: qPCR of COP1 mRNA in HepG2 cells; format: cell-based; conditions: 5 μM and 10 μM, 24 hours
Protocol: Ubiquitination of ATGL by COP1 is a post translational event, therefore, it is expected that the mRNA level of ATGL will not change compared to control upon treatment with the compound of the present disclosure which inhibit COP1. To establish this, HepG2 cells were treated with 5 μM and 10 μM of the compounds 9, 107, 171, 179 and 73 for 24 hours. RNA was isolated using TRIzol reagent followed by chloroform treatment and precipitation with isopropanol. cDNA was obtained from the isolated RNA and qPCR was carried out using SyBr green reagent. COP1 and ATGL gene expression levels were checked. 18s was used as control. FIG. 8 illustrates that compounds exert no effect on the mRNA levels of ATGL.

COP1 [3] = target: COP1 (Homo sapiens, UniProt Q8NHY2); assay: Immunoprecipitation assay of COP1 autoubiquitination in HepG2 cells; format: cell-based; conditions: 5 μM, 24 hours, MG-132
Protocol: COP1 is capable of auto ubiquitinating its own self and getting degraded via the proteasomal pathway. To probe into this, HepG2 cells were co-transfected with HA tagged Ubiquitin and myc-flag tagged COP1. The transfected cells were treated with 5 μM of compounds 9, 10, 107 and 238 for 24 hours. MG-132, a proteasomal inhibitor, was added 4 hours before harvesting the cells. Immune complexes were pulled down with anti-myc antibody and immunoblot was done using anti-HA antibody. […] Thus, the compounds of the present disclosure could be potent therapeutic targets by being able to block the proteasomal degradation of ATGL which would then be able to carry out its lipolytic action and reverse the symptoms of steatosis.
For checking the autoubiquitination status of COP1, HepG2 cells were cotransfected with 2 μg each of Myc-DDK-COP1 and HA-Ub plasmids using Lipofectamine 2000 reagent (Invitrogen) in OptiMEM media (HiMedia). The rest of the procedure is similar to that done for Myc-ATGL.

Sequence of COP1 (Homo sapiens, UniProt Q8NHY2) (Q8NHY2 whole entry): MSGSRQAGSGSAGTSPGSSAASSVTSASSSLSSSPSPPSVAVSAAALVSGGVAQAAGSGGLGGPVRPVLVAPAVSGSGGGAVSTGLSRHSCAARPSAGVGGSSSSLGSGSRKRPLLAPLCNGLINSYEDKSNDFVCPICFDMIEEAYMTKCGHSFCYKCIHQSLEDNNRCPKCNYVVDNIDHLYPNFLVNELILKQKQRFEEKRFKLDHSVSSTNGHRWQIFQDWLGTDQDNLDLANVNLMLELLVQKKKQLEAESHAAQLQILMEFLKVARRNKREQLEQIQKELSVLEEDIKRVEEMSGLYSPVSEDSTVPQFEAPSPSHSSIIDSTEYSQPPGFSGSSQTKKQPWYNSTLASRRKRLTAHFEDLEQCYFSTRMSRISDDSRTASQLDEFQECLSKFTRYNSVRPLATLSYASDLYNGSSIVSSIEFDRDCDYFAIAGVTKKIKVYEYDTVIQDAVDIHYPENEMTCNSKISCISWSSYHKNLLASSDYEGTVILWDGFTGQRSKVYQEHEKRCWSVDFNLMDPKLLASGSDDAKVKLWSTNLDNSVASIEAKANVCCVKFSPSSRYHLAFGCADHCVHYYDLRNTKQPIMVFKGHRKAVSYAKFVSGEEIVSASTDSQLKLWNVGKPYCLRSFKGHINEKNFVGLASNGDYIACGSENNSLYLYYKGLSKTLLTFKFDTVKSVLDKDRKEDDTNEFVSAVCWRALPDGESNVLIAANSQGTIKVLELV

SMILES	Clearance class from % QH [1]	% QH (Well stirred model) [1]	ATGL ubiquitination in HepG2 cells (ATGL)	COP1 mRNA level (COP1 [2])	COP1 autoubiquitination in HepG2 cells (COP1 [3])
COCCn1cnc2ccc(NC(=O)Nc3cccc(C(C)=O)c3)cc2c1=O [Compound 9, 1-(3-acetylphenyl)-3-(3-(2-methoxyethyl)-4-oxo-3,4-dihydroquinazolin-6-yl)urea]	lower clearance	21.26%	effective in reducing the ATGL ubiquitination by COP1; also recorded: subtle reduction in the ubiquitination smear	no significant changes	effective in reducing; also recorded: markedly reduce COP1's auto ubiquitination property
COCCn1c(-c2ccncc2)nc2ccc(NC(=O)Nc3cccc(C(C)=O)c3)cc2c1=O [Compound 219, 1-(3-acetylphenyl)-3-(3-(2-methoxyethyl)-4-oxo-2-(pyridin-4-yl)-3,4-dihydroquinazolin-6-yl)urea]	lower clearance	24.5%	no such effects; also recorded: no subtle reduction in the ubiquitination smear		
COCCn1c(-c2cccnc2)nc2ccc(NC(=O)Nc3cccc(C(C)=O)c3)cc2c1=O [Compound 215, 1-(3-acetylphenyl)-3-(3-(2-methoxyethyl)-4-oxo-2-(pyridin-3-yl)-3,4-dihydroquinazolin-6-yl)urea]	lower clearance	15.5%	no such effects; also recorded: no subtle reduction in the ubiquitination smear		
COCCn1c(CN2CCCCC2)nc2ccc(NC(=O)Nc3cccc(C(C)=O)c3)cc2c1=O [Compound 238, 1-(3-acetylphenyl)-3-(3-(2-methoxyethyl)-4-oxo-2-(piperidin-1-ylmethyl)-3,4-dihydroquinazolin-6-yl)urea]	higher clearance	83.5%	decrease ATGL ubiquitination by COP1; also recorded: decreased		markedly reduce COP1's auto ubiquitination property
COCC(C)n1cnc2ccc(NC(=O)Nc3cccc(C(C)=O)c3)cc2c1=O (stereo not drawn) [Compound 179, 1-(3-acetylphenyl)-3-(3-(1-methoxypropan-2-yl)-4-oxo-3,4-dihydroquinazolin-6-yl)urea]				no significant changes	
COCCn1c(C)nc2ccc(NC(=O)Nc3cccc(C(C)=O)c3)cc2c1=O [Compound 107, 1-(3-acetylphenyl)-3-(3-(2-methoxyethyl)-2-methyl-4-oxo-3,4-dihydroquinazolin-6-yl)urea]			effective in reducing the ATGL ubiquitination by COP1; also recorded: capability of subtly reducing ubiquitination of ATGL	no significant changes	effective in reducing; also recorded: markedly reduce COP1's auto ubiquitination property
CC(=O)c1cccc(NC(=O)Nc2ccc3ncn(CCCN4CCOCC4)c(=O)c3c2)c1 [Compound 139, 1-(3-acetylphenyl)-3-(3-(3-morpholinopropyl)-4-oxo-3,4-dihydroquinazolin-6-yl)urea]	medium clearance	35.3%			
